Reference: BindingDB's records for PubMed 36395995 (University of Jinan, 2023)
pIC50: −log10 of the molar value.

What follows are compounds tested against Maltase-glucoamylase (Homo sapiens, UniProt O43451) (assay: Inhibition of alpha-glucosidase (unknown origin)).
Sequence of Maltase-glucoamylase (O43451 whole entry): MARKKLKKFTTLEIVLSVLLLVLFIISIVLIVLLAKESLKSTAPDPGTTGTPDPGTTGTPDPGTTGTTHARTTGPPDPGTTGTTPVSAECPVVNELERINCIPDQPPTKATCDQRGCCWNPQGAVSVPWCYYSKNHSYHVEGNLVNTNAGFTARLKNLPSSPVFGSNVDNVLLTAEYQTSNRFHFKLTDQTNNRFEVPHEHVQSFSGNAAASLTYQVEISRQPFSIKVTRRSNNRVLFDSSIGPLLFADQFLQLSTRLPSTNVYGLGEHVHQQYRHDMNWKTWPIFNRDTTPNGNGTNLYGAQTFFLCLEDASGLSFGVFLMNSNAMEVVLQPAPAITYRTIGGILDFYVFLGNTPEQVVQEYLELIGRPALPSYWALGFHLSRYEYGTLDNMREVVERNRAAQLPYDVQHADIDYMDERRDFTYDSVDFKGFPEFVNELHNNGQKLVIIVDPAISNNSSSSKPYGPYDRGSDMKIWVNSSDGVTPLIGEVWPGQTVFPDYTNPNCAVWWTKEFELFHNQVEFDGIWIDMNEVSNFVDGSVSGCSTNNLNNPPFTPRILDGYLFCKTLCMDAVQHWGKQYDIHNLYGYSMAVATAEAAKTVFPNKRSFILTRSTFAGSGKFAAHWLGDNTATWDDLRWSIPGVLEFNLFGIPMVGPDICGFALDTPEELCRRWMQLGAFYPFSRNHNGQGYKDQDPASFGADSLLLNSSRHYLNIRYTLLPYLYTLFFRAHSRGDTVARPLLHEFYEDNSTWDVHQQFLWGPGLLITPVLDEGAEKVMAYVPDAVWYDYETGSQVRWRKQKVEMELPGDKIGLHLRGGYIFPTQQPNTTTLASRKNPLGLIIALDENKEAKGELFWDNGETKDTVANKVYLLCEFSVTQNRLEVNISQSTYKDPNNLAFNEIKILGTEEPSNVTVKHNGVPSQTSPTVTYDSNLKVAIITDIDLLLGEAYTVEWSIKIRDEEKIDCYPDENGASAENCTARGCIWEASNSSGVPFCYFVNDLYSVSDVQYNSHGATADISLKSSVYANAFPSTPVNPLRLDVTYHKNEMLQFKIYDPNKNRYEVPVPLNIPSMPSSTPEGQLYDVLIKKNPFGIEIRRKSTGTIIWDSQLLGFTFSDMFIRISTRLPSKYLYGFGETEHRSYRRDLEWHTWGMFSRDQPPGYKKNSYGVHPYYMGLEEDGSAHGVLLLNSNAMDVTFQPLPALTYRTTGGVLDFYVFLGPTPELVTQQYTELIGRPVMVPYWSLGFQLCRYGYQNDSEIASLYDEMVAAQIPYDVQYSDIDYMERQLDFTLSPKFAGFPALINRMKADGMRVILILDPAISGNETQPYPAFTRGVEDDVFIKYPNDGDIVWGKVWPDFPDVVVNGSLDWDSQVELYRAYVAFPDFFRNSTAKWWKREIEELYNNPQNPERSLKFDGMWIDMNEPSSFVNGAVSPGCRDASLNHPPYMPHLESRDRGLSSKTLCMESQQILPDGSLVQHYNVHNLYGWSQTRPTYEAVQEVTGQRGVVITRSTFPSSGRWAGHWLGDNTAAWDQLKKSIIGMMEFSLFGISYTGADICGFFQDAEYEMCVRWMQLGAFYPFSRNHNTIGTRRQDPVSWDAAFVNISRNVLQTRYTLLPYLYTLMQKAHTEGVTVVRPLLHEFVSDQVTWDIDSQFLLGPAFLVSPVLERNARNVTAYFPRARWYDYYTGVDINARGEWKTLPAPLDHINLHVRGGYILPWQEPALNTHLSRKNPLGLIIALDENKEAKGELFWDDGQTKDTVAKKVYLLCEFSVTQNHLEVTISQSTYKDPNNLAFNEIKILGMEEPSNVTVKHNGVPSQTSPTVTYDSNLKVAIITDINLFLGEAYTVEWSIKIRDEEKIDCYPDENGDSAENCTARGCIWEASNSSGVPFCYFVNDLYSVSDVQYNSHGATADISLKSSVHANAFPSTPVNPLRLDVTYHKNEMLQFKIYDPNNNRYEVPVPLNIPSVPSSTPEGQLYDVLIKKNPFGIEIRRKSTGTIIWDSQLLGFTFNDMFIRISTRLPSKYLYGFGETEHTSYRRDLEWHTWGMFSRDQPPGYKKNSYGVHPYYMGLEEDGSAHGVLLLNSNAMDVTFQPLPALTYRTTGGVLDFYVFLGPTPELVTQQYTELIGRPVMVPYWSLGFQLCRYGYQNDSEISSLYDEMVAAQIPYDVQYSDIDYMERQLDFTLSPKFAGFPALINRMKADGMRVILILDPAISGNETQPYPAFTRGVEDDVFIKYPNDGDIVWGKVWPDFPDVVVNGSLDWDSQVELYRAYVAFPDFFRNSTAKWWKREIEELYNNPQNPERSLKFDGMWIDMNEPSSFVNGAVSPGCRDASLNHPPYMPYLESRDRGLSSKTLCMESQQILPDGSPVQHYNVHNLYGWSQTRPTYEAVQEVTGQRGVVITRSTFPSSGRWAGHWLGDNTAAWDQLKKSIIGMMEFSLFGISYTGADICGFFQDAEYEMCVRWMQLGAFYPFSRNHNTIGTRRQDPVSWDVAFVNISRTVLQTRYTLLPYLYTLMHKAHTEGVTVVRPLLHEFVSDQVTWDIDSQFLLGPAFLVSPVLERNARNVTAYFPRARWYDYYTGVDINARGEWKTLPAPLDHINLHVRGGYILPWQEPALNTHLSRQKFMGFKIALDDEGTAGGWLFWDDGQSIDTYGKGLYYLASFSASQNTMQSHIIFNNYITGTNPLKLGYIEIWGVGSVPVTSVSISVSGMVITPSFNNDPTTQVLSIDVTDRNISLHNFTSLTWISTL

Compared with COC(=O)c1ccc(CNC(=O)c2c(NC(=O)c3cccnc3)sc3c2CCCC3)cc1, COc1ccc(CNC(=O)c2c(NC(=O)c3cccnc3)sc3c2CCCC3)cc1 is 0.46 log units higher in pIC50: 4.06 for the first, 4.52 for the second. The second is the more potent here.

First: COc1cc(CNC(=O)c2c(NC(=O)c3cccnc3)sc3c2CCCCC3)ccc1O
Second: COc1cc(CNC(=O)c2c(NC(=O)c3cccnc3)sc3c2CCCC3)ccc1O
The pIC50 of the first is 0.55 log units lower: 4.45 for the first, 5.00 for the second.

O=C(Nc1sc2c(c1C(=O)NCc1ccccc1)CCCC2)c1cccnc1 and O=C(Nc1sc2c(c1C(=O)NCc1ccccc1)CCCCC2)c1cccnc1 are within 0.2 log units of each other in pIC50: 4.34 for the first, 4.20 for the second.

Going from O=C(Nc1sc2c(c1C(=O)NCc1cccnc1)CCCC2)c1cccnc1 to O=C(Nc1sc2c(c1C(=O)NCc1ccccn1)CCCC2)c1cccnc1, the pIC50 rises from 3.29 to 4.19 (0.90 log units).

COc1ccc(CNC(=O)c2c(NC(=O)c3cccnc3)sc3c2CCC3)cc1 and COc1cc(CNC(=O)c2c(NC(=O)c3cccnc3)sc3c2CCC3)ccc1O are within 0.2 log units of each other in pIC50: 4.06 for the first, 4.03 for the second.

O=C(Nc1sc2c(c1C(=O)NCc1ccccc1)CCC2)c1cccnc1 was tested, and the pIC50 was 4.08.
